# Data taken from patent US20110182850A1, “ORGANIC COMPOUNDS AND THEIR USES” (priority 2009, published 2011).
# Molecular target: T1, HCV NS3-4A serine protease (full-length NS3-4A protein, genotype 1a, strain HCV-1) (Hepatitis C virus genotype 1a, UniProt P26664)
# T1 construct: using the full-length NS3-4A protein (genotype 1a, strain HCV-1)
# Experiment: HCV NS3-4A protease assay
# Type: biochemical
# Conditions: Protease IC50
# Procedure: The inhibitory activity of certain compounds of Table A against HCV NS3-4A serine protease is determined in a homogenous assay using the full-length NS3-4A protein (genotype 1a, strain HCV-1) and a commercially available internally-quenched fluorogenic peptide substrate as described by Taliani, M., et al. 1996 Anal. Biochem. 240:60-67, which is incorporated by reference in its entirety.
# T1 sequence (P26664 1658-1711): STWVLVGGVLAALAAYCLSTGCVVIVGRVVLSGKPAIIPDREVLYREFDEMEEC
# T1 sequence (P26664 1027-1657): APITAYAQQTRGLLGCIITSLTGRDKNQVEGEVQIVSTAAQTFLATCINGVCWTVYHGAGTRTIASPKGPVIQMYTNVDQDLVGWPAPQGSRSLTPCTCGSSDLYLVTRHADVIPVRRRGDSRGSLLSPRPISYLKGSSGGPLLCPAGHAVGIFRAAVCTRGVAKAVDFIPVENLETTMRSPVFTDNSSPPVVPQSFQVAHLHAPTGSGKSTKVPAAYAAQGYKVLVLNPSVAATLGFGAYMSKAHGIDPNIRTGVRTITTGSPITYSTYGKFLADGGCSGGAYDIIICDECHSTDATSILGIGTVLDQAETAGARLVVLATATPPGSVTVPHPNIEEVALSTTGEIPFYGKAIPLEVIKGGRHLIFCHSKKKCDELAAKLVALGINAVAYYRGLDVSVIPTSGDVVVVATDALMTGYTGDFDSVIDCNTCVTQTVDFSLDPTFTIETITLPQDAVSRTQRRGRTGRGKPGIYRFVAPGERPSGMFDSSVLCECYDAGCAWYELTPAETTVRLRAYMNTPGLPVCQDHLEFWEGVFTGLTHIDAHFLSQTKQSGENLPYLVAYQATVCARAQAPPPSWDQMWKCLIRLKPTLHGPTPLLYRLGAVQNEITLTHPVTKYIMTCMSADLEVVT
row,Structure (SMILES),IC50
1,"C=C[C@@H]1C[C@]1(NC(=O)[C@@H]1C[C@@]2(CN1C(=O)[C@@H](NC(=O)C(NC(=O)c1ccccc1Nc1ccccc1)C1CCCCC1)C(C)(C)C)C(C)(C)C21CCC1)C(=O)NS(=O)(=O)C1CC1 (stereo partly drawn) [Compound 124, (5R,8S)-7-[(2S)-2-({[(2-anilinobenzoyl)amino](cyclo-hexyl)acetyl}amino)-3,3-dimethylbutanoyl]-N-{(1R,2S)-1-[(cyclopropylsulfonyl)carba-moyl]-2-vinylcyclopropyl}-10,10-dimethyl-7-azadispiro[3.0.4.1]decane-8-carboxamide]",30 nM
2,"C=C[C@@H]1C[C@]1(NC(=O)[C@@H]1C[C@@]2(CN1C(=O)[C@@H](NC(=O)[C@@H](NC(=O)N1CCN(C)CC1)C(C)(C)C)C(C)(C)C)C(C)(C)C21CCC1)C(=O)NS(=O)(=O)C1CC1 [Compound 55, (5R,8S)-N-{(1R,2S)-1-[(cyclopropylsulfonyl)carba-moyl]-2-vinylcyclopropyl}-7-[(2S)-2-{[(2S)-3,3-dimethyl-2-{[(4-methylpiperazin-1-yl)carbonyl]amino}butanoyl]amino}-3,3-dimethylbutanoyl]-10,10-dimethyl-7-azadispiro[3.0.4.1]decane-8-carboxamide]",25 nM
3,"C=C[C@H]1C[C@@]1(NC(=O)[C@@H]1C[C@@]2(CN1C(=O)[C@@H](NC(=O)[C@@H](NC(=O)c1ncc[nH]1)C1CCCCC1)C(C)(C)C)C(C)(C)C21CCC1)C(=O)NS(=O)(=O)C1CC1 [Compound 105, (5R,8S)-7-[(2S)-2-({cyclohexyl[(1H-imidazol-2-ylcarbonyl)amino]acetyl}amino)-3,3-dimethylbutanoyl]-N-{(1R,2S)-1-[(cyclopropylsulfonyl)carba-moyl]-2-vinylcyclopropyl}-10,10-dimethyl-7-azadispiro[3.0.4.1]decane-8-carboxamide]",0.9 nM
4,"C=C[C@@H]1C[C@]1(NC(=O)[C@@H]1C[C@@]2(CN1C(=O)[C@@H](NC(=O)[C@@H](N1CCCC1=O)C(C)(C)C)C(C)(C)C)C(C)(C)C21CCC1)C(=O)NS(=O)(=O)C1CC1 [Compound 35, (5R,8S)-N-{(1R,2S)-1-[(cyclopropylsulfonyl)carba-moyl]-2-vinylcyclopropyl}-7-[(2S)-2-{[(2S)-3,3-dimethyl-2-(2-oxopyrrolidin-1-yl)butanoyl]amino}-3,3-dimethylbutanoyl]-10,10-dimethyl-7-azadispiro[3.0.4.1]decane-8-carboxamide]",9 nM
5,"C=C[C@@H]1C[C@]1(NC(=O)[C@@H]1C[C@@]2(CN1C(=O)[C@@H](NC(=O)[C@@H](NC(=O)[C@@H]1CCCCN1C(C)C)C(C)(C)CC)C(C)(C)C)C(C)(C)C21CCC1)C(=O)NS(=O)(=O)C1CC1 [Compound 36, (5R,8S)-N-{(1R,2S)-1-[(cyclopropylsulfonyl)carba-moyl]-2-vinylcyclopropyl}-7-[(2S)-2-{[(2S)-2-({[(2S)-1-isopropylpiperidin-2-yl]carbonyl}amino)-3,3-dimethylpentanoyl]amino}-3,3-dimethylbutanoyl]-10,10-dimethyl-7-azadispiro[3.0.4.1]decane-8-carboxamide]",1 nM
6,"C=C[C@@H]1C[C@]1(NC(=O)[C@@H]1C[C@@]2(CN1C(=O)[C@@H](NC(=O)[C@@H](NC(=O)c1ncc[nH]1)C(C)(C)C)C(C)(C)C)C(C)(C)C21CCC1)C(=O)NS(=O)(=O)C1CC1 [Compound 122, (5R,8S)-N-{(1R,2S)-1-[(cyclopropylsulfonyl)carba-moyl]-2-vinylcyclopropyl}-7-[(2S)-2-({(2S)-2-[(1H-imidazol-2-ylcarbonyl)amino]-3,3-dimethylbutanoyl}amino)-3,3-dimethylbutanoyl]-10,10-dimethyl-7-azadispiro[3.0.4.1]decane-8-carboxamide]",3 nM
7,"C=C[C@@H]1C[C@]1(NC(=O)[C@@H]1C[C@@]2(CN1C(=O)[C@@H](NC(=O)[C@@H](NC(=O)[C@@H]1CCCN(CC)C1)C1CCCCC1)C(C)(C)C)C(C)(C)C21CCC1)C(=O)NS(=O)(=O)C1CC1 [Compound 90, (5R,8S)-7-[(2S)-2-{[(2S)-2-cyclohexyl-2-({[(3R)-1-ethylpiperidin-3-yl]carbonyl}amino)acetyl]amino}-3,3-dimethylbutanoyl]-N-{(1R,2S)-1-[(cyclopropylsulfonyl)carba-moyl]-2-vinylcyclopropyl}-10,10-dimethyl-7-azadispiro[3.0.4.1]decane-8-carboxamide]",0.7 nM
8,"CCCC(NC(=O)[C@@H]1C[C@@]2(CN1C(=O)C(NC(=O)[C@@H](NC(=O)C(C)(C)N1CCCC1)C1CCCCC1)C(C)(C)C)C(C)(C)C21CCC1)C(=O)NS(=O)(=O)C1CC1 (stereo partly drawn) [Compound 2, (5R,8S)-7-[2-({(2S)-2-cyclohexyl-2-[(2-methyl-2-pyrrolidin-1-ylpropanoyl)amino]acetyl}amino)-3,3-dimethylbutanoyl]-N-{1-[(cyclopropylsulfonyl)carba-moyl]butyl}-10,10-dimethyl-7-azadispiro[3.0.4.1]decane-8-carboxamide]",2250 nM
9,"CC(C)N1CCCC[C@H]1C(=O)N[C@H](C(=O)N[C@H](C(=O)N1C[C@]2(CC1C(=O)NC1(C(=O)NS(=O)(=O)C3CC3)CC1(C)C)C(C)(C)C21CCC1)C(C)(C)C)C(C)(C)C (stereo partly drawn) [Compound 15, (5R)-N-{1-[(cyclopropylsulfonyl)carba-moyl]-2,2-dimethylcyclopropyl}-7-[(2S)-2-{[(2S)-2-({[(2S)-1-isopropylpiperidin-2-yl]carbonyl}amino)-3,3-dimethylbutanoyl]amino}-3,3-dimethylbutanoyl]-10,10-dimethyl-7-azadispiro[3.0.4.1]decane-8-carboxamide]",3700 nM
10,"C=C[C@@H]1C[C@]1(NC(=O)[C@@H]1C[C@@]2(CN1C(=O)[C@@H](NC(=O)[C@@H](NC(=O)[C@@H]1COCCN1C(C)C)C(C)(C)C)C(C)(C)C)C(C)(C)C21CCC1)C(=O)NS(=O)(=O)C1CC1 [Compound 143, (5R,8S)-N-{(1R,2S)-1-[(cyclopropylsulfonyl)carba-moyl]-2-vinylcyclopropyl}-7-[(2S)-2-{[(2S)-2-({[(3S)-4-isopropylmorpholin-3-yl]carbonyl}amino)-3,3-dimethylbutanoyl]amino}-3,3-dimethylbutanoyl]-10,10-dimethyl-7-azadispiro[3.0.4.1]decane-8-carboxamide]",4 nM
11,"C=C[C@@H]1C[C@]1(NC(=O)[C@@H]1C[C@@]2(CN1C(=O)[C@@H](NC(=O)[C@@H](NC(=O)c1ccccc1)C1CCCCC1)C(C)(C)C)C(C)(C)C21CCC1)C(=O)NS(=O)(=O)C1CC1 [Compound 98, (5R,8S)-7-[(2S)-2-{[(2S)-2-(benzoylamino)-2-cyclohexylacetyl]amino}-3,3-dimethylbutanoyl]-N-{(1R,2S)-1-[(cyclopropylsulfonyl)carba-moyl]-2-vinylcyclopropyl}-10,10-dimethyl-7-azadispiro[3.0.4.1]decane-8-carboxamide]",1.5 nM
12,"C=C[C@H]1C[C@@]1(NC(=O)[C@@H]1C[C@@]2(CN1C(=O)[C@@H](NC(=O)[C@@H](NC(=O)C(C)(C)N1CCOCC1)C1CCCCC1)C(C)(C)C)C(C)(C)C21CCC1)C(=O)NS(=O)(=O)C1CC1 [Compound 101, (5R,8S)-7-[(2S)-2-({cyclohexyl[(2-methyl-2-morpholin-4-ylpropanoyl)amino]acetyl}amino)-3,3-dimethylbutanoyl]-N-{(1R,2S)-1-[(cyclopropylsulfonyl)carba-moyl]-2-vinylcyclopropyl}-10,10-dimethyl-7-azadispiro[3.0.4.1]decane-8-carboxamide]",1 nM
13,"C=C[C@@H]1C[C@]1(NC(=O)[C@@H]1C[C@@]2(CN1C(=O)[C@@H](NC(=O)[C@@H](NC(=O)C(C)(C)N1CCCC1)C1CCCCC1)C(C)(C)C)C(C)(C)C21CCC1)C(=O)NS(=O)(=O)C1CC1 [Compound 89, (5R,8S)-7-[(2S)-2-({(2S)-2-cyclohexyl-2-[(2-methyl-2-pyrrolidin-1-ylpropanoyl)amino]acetyl}amino)-3,3-dimethylbutanoyl]-N-{(1R,2S)-1-[(cyclopropylsulfonyl)carba-moyl]-2-vinylcyclopropyl}-10,10-dimethyl-7-azadispiro[3.0.4.1]decane-8-carboxamide]",0.8 nM
14,"C=C[C@@H]1C[C@]1(NC(=O)[C@@H]1C[C@@]2(CN1C(=O)[C@@H](NC(=O)[C@@H](NC(=O)c1cnccn1)C(C)(C)C)C(C)(C)C)C(C)(C)C21CCC1)C(=O)NS(=O)(=O)C1CC1 [Compound 100, (5R,8S)-N-{(1R,2S)-1-[(cyclopropylsulfonyl)carba-moyl]-2-vinylcyclopropyl}-7-[(2S)-2-({(2S)-3,3-dimethyl-2-[(pyrazin-2-ylcarbonyl)amino]butanoyl}amino)-3,3-dimethylbutanoyl]-10,10-dimethyl-7-azadispiro[3.0.4.1]decane-8-carboxamide]",4 nM

# Same assay, conditions: read-out: Protease IC50
row,Structure (SMILES),IC50
1,"C=C[C@@H]1C[C@]1(NC(=O)[C@@H]1C[C@@]2(CN1C(=O)[C@@H](NCc1nc3ccccc3n1C)C(C)(C)C)C(C)(C)C21CCC1)C(=O)NS(=O)(=O)C1CC1 [Compound 12, (5R,8S)-N-{(1R,2S)-1-[(cyclopropylsulfonyl)carba-moyl]-2-vinylcyclopropyl}-7-[(2S)-3,3-dimethyl-2-{[(1-methyl-1H-benzimidazol-2-yl)methyl]amino}butanoyl]-10,10-dimethyl-7-azadispiro[3.0.4.1]decane-8-carboxamide]",400 nM
2,"C=C[C@@H]1C[C@]1(NC(=O)[C@@H]1C[C@@]2(CN1C(=O)[C@@H](NC(=O)CC1CCCCC1)C(C)(C)C)C(C)(C)C21CCC1)C(=O)NS(=O)(=O)C1CC1 [Compound 7, (5R,8S)-7-{(2S)-2-[(cyclohexylacetyl)amino]-3,3-dimethylbutanoyl}-N-{(1R,2S)-1-[(cyclopropylsulfonyl)carba-moyl]-2-vinylcyclopropyl}-10,10-dimethyl-7-azadispiro[3.0.4.1]decane-8-carboxamide]",100 nM
